{
  "source": "patent US11369572B2",
  "about": "“Fas (Apo-1,CD95) targeted platforms for intracellular drug delivery” (Queen Mary & Westfield College, priority 2009, dated 2022)",
  "system": "IGROV1-luciferase cells",
  "assay": "Peritoneal ovarian cancer xenograft, bioluminescence imaging",
  "conditions": "by day 48; n=5",
  "procedure": "5×10^6 IGROV1-luciferase cells were inoculated IP into female Balb C nu/nu mice on day 1. Paclitaxel (20 mg/kg) and PLGA microspheres were administered IP once per week (days 7, 14, 21 and 28). For bioluminescence imaging, mice were injected IP with 125 mg/kg D-luciferin (Calliper Life Sciences, UK) and then anesthetized (2% isofluorane by inhalation). Five minutes later, whilst still under anaesthetic, they were placed in a light-tight chamber on a warmed stage (37° C.) and light emission from a defined region of interest on a ventral surface was imaged on a Xenogen IVIS Imaging System 100 system (Alameda, Calif., USA). Data were analyzed using Living Image software (also Xenogen, Alameda, Calif., USA) and are presented as relative radiance (calculated from mean Radiance photons/s/cm2/sr).”\nStandard error of mean (SEM) was used to assess consistency between each experimental group. One way ANOVA with Bonferroni post test were used to evaluate differences between groups. Two tailed t test was used to compare two groups.",
  "data": [
    {"compound": "CC(=O)O[C@H]1C(=O)[C@@]2(C)[C@H]([C@H](OC(=O)c3ccccc3)[C@]3(O)C[C@H](OC(=O)[C@H](O)[C@@H](NC(=O)c4ccccc4)c4ccccc4)C(C)=C1C3(C)C)[C@]1(OC(C)=O)CO[C@@H]1C[C@@H]2O", "note": "[paclitaxel]", "values": [
      {"measurement": "further animals sacrificed", "result": 2}
    ]}
  ]
}
